Reference: ChEMBL document CHEMBL4699445, “Highly Potent Antiausterity Agents from Callistemon citrinus and Their Mechanism of Action against the PANC-1 Human Pancreatic Cancer Cell Line” (2020)
Active and inactive are the calls of the source. No cut-off for these calls is given here.

Key:
[1] = tested on: PANC-1; experiment: Anticancer activity against human PANC-1 cells assessed as reduction in cell viability in nutrient-deprived medium after 24 hrs by WST-8 assay; format: functional
[2] = tested on: PANC-1; experiment: Inhibition of colony formation in human PANC-1 cells in nutrient rich DMEM medium at 10 uM measured after 24 hrs by crystal violet staining based assay (reference value: 33%); format: functional
[3] = tested on: PANC-1; experiment: Inhibition of PI3K/Akt/mTOR signaling in human PANC-1 cells assessed as decrease in PI3K p110beta level measured after 3 to 6 hrs by Western blot analysis; format: cell-based; conditions: dose 1-10 µM, time 3-6 hrs
[4] = tested on: PANC-1; experiment: Inhibition of PI3K/Akt/mTOR signaling in human PANC-1 cells assessed as decrease in pAkt at S473 level at 1 to 10 uM by Western blot analysis; format: cell-based; conditions: dose 1-10 µM, time 3-6 hrs, TDE = time-dependent effect
[5] = tested on: PANC-1; experiment: Inhibition of colony formation in human PANC-1 cells in nutrient rich DMEM medium at 5 uM measured after 24 hrs by crystal violet staining based assay (reference value: 33%); format: functional
[6] = tested on: PANC-1; experiment: Inhibition of PI3K/Akt/mTOR signaling in human PANC-1 cells assessed as decrease in pmTOR S2481 level at 1 to 10 uM by Western blot analysis; format: cell-based; conditions: dose 1-10 µM, time 3-6 hrs, TDE = time-dependent effect
[7] = tested on: PANC-1; experiment: Inhibition of PI3K/Akt/mTOR signaling in human PANC-1 cells assessed as decrease in mTOR level measured after 3 to 6 hrs by Western blot analysis; format: cell-based; conditions: dose 1-10 µM, time 3-6 hrs
[8] = tested on: PANC-1; experiment: Inhibition of PI3K/Akt/mTOR signaling in human PANC-1 cells assessed as decrease in PI3K p110beta level at 1 to 10 uM by Western blot analysis; format: cell-based; conditions: dose 1-10 µM, time 3-6 hrs, TDE = time-dependent effect
[9] = tested on: PANC-1; experiment: Inhibition of PI3K/Akt/mTOR signaling in human PANC-1 cells assessed as decrease in LC3-II level at 1 to 10 uM measured after 3 to 6 hrs by Western blot analysis; format: cell-based; conditions: dose 1-10 µM, time 3-6 hrs
[10] = tested on: PANC-1; experiment: Inhibition of PI3K/Akt/mTOR signaling in human PANC-1 cells assessed as decrease in pAkt at S473 level measured after 3 to 6 hrs by Western blot analysis; format: cell-based; conditions: dose 1-10 µM, time 3-6 hrs
[11] = tested on: PANC-1; experiment: Inhibition of cell migration in human PANC1 cells assessed as open wound area at 5 uM cultured in nutrient rich DMEM medium measured after 24 hrs by quantitative real-time imaging based wound healing assay (reference value: 15%); format: functional; set-up: scale not given: the % may be the effect or the level left
[12] = tested on: PANC-1; experiment: Inhibition of PI3K/Akt/mTOR signaling in human PANC-1 cells assessed as decrease in mTOR level at 1 to 10 uM by Western blot analysis; format: cell-based; conditions: dose 1-10 µM, time 3-6 hrs, TDE = time-dependent effect
[13] = tested on: PANC-1; experiment: Inhibition of PI3K/Akt/mTOR signaling in human PANC-1 cells assessed as decrease in pmTOR S2481 level measured after 3 to 6 hrs by Western blot analysis; format: cell-based; conditions: dose 1-10 µM, time 3-6 hrs
[14] = tested on: PANC-1; experiment: Induction of cell morphological changes in human PANC-1 cells assessed as dead cells at 0.1 uM after 24 hrs in nutrient-deprived medium by ethidium bromide-acridine orange staining based fluorescence microscopic analysis; format: functional
[15] = tested on: PANC-1; experiment: Inhibition of colony formation in human PANC-1 cells in nutrient rich DMEM medium measured after 24 hrs by crystal violet staining based assay; format: functional, cell-based; conditions: dose microM 2.5-10, time 24.0 hrs
[16] = tested on: PANC-1; experiment: Inhibition of PI3K/Akt/mTOR signaling in human PANC-1 cells assessed as decrease in Akt level at 1 to 10 uM by Western blot analysis; format: cell-based; conditions: dose 1-10 µM, time 3-6 hrs, TDE = time-dependent effect
[17] = tested on: PANC-1; experiment: Inhibition of PI3K/Akt/mTOR signaling in human PANC-1 cells assessed as decrease in Akt level measured after 3 to 6 hrs by Western blot analysis; format: cell-based; conditions: dose 1-10 µM, time 3-6 hrs
[18] = tested on: PANC-1; experiment: Inhibition of cell migration in human PANC1 cells assessed as open wound area at 5 uM cultured in nutrient rich DMEM medium measured after 12 hrs by quantitative real-time imaging based wound healing assay (reference value: 57.5%); format: functional; set-up: scale not given: the % may be the effect or the level left
[19] = tested on: PANC-1; experiment: Inhibition of PI3K/Akt/mTOR signaling in human PANC-1 cells assessed as decrease in PI3K p110alpha level at 1 to 10 uM by Western blot analysis; format: cell-based; conditions: dose 1-10 µM, time 3-6 hrs, TDE = time-dependent effect
[20] = tested on: PANC-1; experiment: Inhibition of colony formation in human PANC-1 cells in nutrient rich DMEM medium at 2.5 uM measured after 24 hrs by crystal violet staining based assay (reference value: 33%); format: functional
[21] = tested on: PANC-1; experiment: Inhibition of PI3K/Akt/mTOR signaling in human PANC-1 cells assessed as decrease in PI3K p110alpha level measured after 3 to 6 hrs by Western blot analysis; format: cell-based; conditions: dose microM 1-10, time hrs 3-6

CC(C)[C@@H]1C[C@]2(CC[C@]3(C(C)C)C[C@H]23)OC2=C1C(=O)C(C)(C)C(=O)C2(C)C
PC50 [1]: 3.9 µM

CC(C)=CCCC1=CCC2(C(=O)C(C)(C)C(=O)C(C)(C)C2=O)[C@@H](C(C)C)C1
PC50 [1]: 0.02 µM

CC(C)[C@@H]1C=C[C@@]2(C)OC3=C(C(=O)C(C)(C)C(=O)C3(C)C)[C@@H](C(C)C)[C@H]2C1
PC50 [1]: 5 µM

C=C1CC[C@H]2[C@@H](C(C)C)C3=C(O[C@]2(C)CC[C@@H]2[C@@H]1CC2(C)C)C(C)(C)C(=O)C(C)(C)C3=O
PC50 [1]: 28.1 µM

Oc1cc(O)c2c(c1)O[C@H](c1ccc(O)c(O)c1)[C@@H](O)C2 [CIANIDANOL]
PC50 [1]: >100 µM

COc1ccc(-c2cc(=O)c3c(O)c(C)c(OC)c(C)c3o2)cc1
PC50 [1]: 1 µM

CC(C)CC(=O)c1c(O)c([C@H](C2=C(O)C(C)(C)C(=O)C(C)(C)C2=O)C(C)C)c(O)c2c1O[C@]1(C)C=C[C@@H](C(C)C)C[C@H]21
inhibition at 10 µM [2]: 80%
inhibition [3]: Dose-dependent effect
inhibition [4]: Tde
inhibition at 5 µM [5]: 63%
PC50 [1]: 0.065 µM
inhibition [6]: Tde
inhibition [7]: Dose-dependent effect
inhibition [8]: Tde
inhibition [9]: Active
inhibition [10]: Dose-dependent effect
Activity [11]: 92%
inhibition [12]: Tde
inhibition [13]: Dose-dependent effect
Activity [14]: Active
inhibition [15]: Dose-dependent effect
inhibition [16]: Tde
inhibition [17]: Dose-dependent effect
Activity [18]: 95%
inhibition [19]: Tde
inhibition at 2.5 µM [20]: 41%
inhibition [21]: Dose-dependent effect

CC(C)[C@@H]1C[C@]2(CC[C@H]3C[C@@H]2C3(C)C)OC2=C1C(=O)C(C)(C)C(=O)C2(C)C
PC50 [1]: 8 µM

CC1(C)C=C2C(=O)C(C)(C)C(=O)C(C)(C)C2(O)OO1 (configuration not stated) [ENDOPEROXIDE HORMONE G3]
PC50 [1]: 32.3 µM

COc1cc(C[C@H]2C(=O)OC[C@@H]2Cc2ccc(OC)c(OC)c2)ccc1O [ARCTIGENIN]
PC50 [1]: 0.7 µM

CC(C)[C@@H]1C=C[C@@]2(C)OC3=C(C(=O)C(C)(C)C(=O)C3(C)C)[C@H](C(C)C)[C@H]2C1
PC50 [1]: 11.7 µM

CC(C)[C@H]1C[C@]2(CC[C@]3(C(C)C)C[C@H]23)OC2=C1C(=O)C(C)(C)C(=O)C2(C)C
PC50 [1]: 10 µM

COc1ccc(-c2cc(=O)c3c(O)c(C)c(OC)cc3o2)cc1
PC50 [1]: 6.1 µM

CC(C)CC(=O)c1c(O)c2c(c3c1OC1(O)C(C(=O)C(C)(C)C(=O)C1(C)C)[C@@H]3C(C)C)OC1=C(C(=O)C(C)(C)C(=O)C1(C)C)[C@@H]2C(C)C (some centres not stated)
PC50 [1]: 0.6 µM

CCC(C)[C@H](C1=C(O)C(C)(C)C(=O)C(C)(C)C1=O)c1c(O)c(C(=O)CC(C)C)c(O)c2c1O[C@]1(C)C=C[C@@H](C(C)C)C[C@H]21 (some centres not stated)
PC50 [1]: 0.01 µM
Activity [14]: Active

COc1cc([C@H]2c3cc(O)c(OC)cc3C[C@H](C)[C@@H]2C)ccc1O
PC50 [1]: 88.3 µM
